This assay concerns CD2F1 mice, L1210 leukemia ip, survival T/C. Description: NCI In Vivo Anticancer Drug Screen. Data for tumor model L1210 Leukemia (intraperitoneal) in CD2F1 (CDF1) mice. To be noted: higher = longer survival. In outline: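 Vehicle-treated tumor-bearing mice served as controls (C) for compound-treated mice (T). Reported figure is T divided by C.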
[1] abbreviates: endpoint: mean survival time, dose: 25.0 mg/kg/injection, schedule: Q04DX003 (ip), vehicle: saline with Tween-80.
Setting [2] is: endpoint: mean survival time, dose: 50.0 mg/kg/injection, schedule: Q04DX003 (ip), vehicle: saline with Tween-80.
Setting [3] is: endpoint: mean survival time, dose: 100.0 mg/kg/injection, schedule: Q01DX001 (ip), vehicle: saline with Tween-80.
Where [4] appears, read: endpoint: mean survival time, dose: 200.0 mg/kg/injection, schedule: Q01DX001 (ip), vehicle: saline with Tween-80.
Where [5] appears, read: endpoint: mean survival time, dose: 400.0 mg/kg/injection, schedule: Q01DX001 (ip), vehicle: saline with Tween-80.
[6] abbreviates: endpoint: mean survival time, dose: 100.0 mg/kg/injection, schedule: Q04DX003 (ip), vehicle: saline with Tween-80.
[7] abbreviates: endpoint: mean survival time, dose: 200.0 mg/kg/injection, schedule: Q04DX003 (ip), vehicle: saline with Tween-80.
Setting [8] is: endpoint: mean survival time, dose: 400.0 mg/kg/injection, schedule: Q04DX003 (ip), vehicle: saline with Tween-80.
The mark [9] stands for this setting: endpoint: mean survival time, dose: 100.0 mg/kg/injection, schedule: Q04DX002 (ip), vehicle: saline with Tween-80.
[10] abbreviates: endpoint: mean survival time, dose: 200.0 mg/kg/injection, schedule: Q04DX002 (ip), vehicle: saline with Tween-80.
The mark [11] stands for this setting: endpoint: mean survival time, dose: 400.0 mg/kg/injection, schedule: Q04DX002 (ip), vehicle: saline with Tween-80.
The mark [12] stands for this setting: endpoint: mean survival time, dose: 12.5 mg/kg/injection, schedule: Q01DX009 (ip), vehicle: saline with Tween-80.
Setting [13] is: endpoint: mean survival time, dose: 25.0 mg/kg/injection, schedule: Q01DX009 (ip), vehicle: saline with Tween-80.

Several values for one entry are separate records, joined by “and”; a condition that tells them apart may be missing. Identical values can stand only once. Inconclusive results and toxic doses are left out.

In the case of `Cc1nc(CCCCCCCC(=O)O)ccc1O`, the T/C (endpoint: mean survival time, dose: 100.0 mg/kg/injection, schedule: Q04DX002 (ip), vehicle: saline) was 94 % of control; the T/C (endpoint: mean survival time, dose: 200.0 mg/kg/injection, schedule: Q04DX002 (ip), vehicle: saline) is 97 % of control; the T/C (endpoint: mean survival time, dose: 400.0 mg/kg/injection, schedule: Q04DX002 (ip), vehicle: saline) is 109 % of control.

In the case of `NC/C(=N\O)c1ccc(-c2ccccc2)cc1`, the T/C is 91 % of control (endpoint: mean survival time, dose: 100.0 mg/kg/injection, schedule: Q01DX001 (ip), vehicle: Klucel (hydroxypropylcellulose) (HPC)); 91 % of control (endpoint: mean survival time, dose: 200.0 mg/kg/injection, schedule: Q01DX001 (ip), vehicle: Klucel (hydroxypropylcellulose) (HPC)); 91 % of control (endpoint: mean survival time, dose: 400.0 mg/kg/injection, schedule: Q01DX001 (ip), vehicle: Klucel (hydroxypropylcellulose) (HPC)).

As to `COc1cc[n+](CCc2c[nH]c3ccccc23)cc1`, the T/C is, setting by setting: (endpoint: mean survival time, dose: 12.5 mg/kg/injection, schedule: Q01DX009 (ip), vehicle: saline sonified) 97 % of control; (endpoint: mean survival time, dose: 12.5 mg/kg/injection, schedule: Q04DX003 (ip), vehicle: saline with Tween-80) 97 % of control; (endpoint: mean survival time, dose: 25.0 mg/kg/injection, schedule: Q01DX009 (ip), vehicle: saline sonified) 98 % of control; under setting [1], 101 % of control; (endpoint: mean survival time, dose: 50.0 mg/kg/injection, schedule: Q01DX009 (ip), vehicle: saline sonified) 100 % of control; under setting [2], 104 % of control.

On to `CCC(C)(O)C1CC1` (centres undefined), for which the T/C is 98 % of control under setting [3], 103 % of control under setting [4] and 104 % of control under setting [5].

`CCOc1c(F)ccc(F)c1-c1c(F)ccc(F)c1OCC`: the T/C by setting is: under setting [6], 98 % of control; under setting [7], 95 % of control; under setting [8], 106 % of control.

For the compound `CC(CC=O)CCCC(C)(C)O` (centres undefined), the T/C reads like this: under setting [6], 103 % of control; under setting [7], 95 % of control; under setting [8], 98 % of control.

In the case of `O=c1[nH]c(/C=C/c2ccccc2)c([N+](=O)[O-])c(=O)[nH]1`, the T/C runs as follows: under setting [3], 95 % of control; under setting [4], 90 % of control; under setting [5], 90 % of control.

Regarding `NC1CCCCC1N.O=C1C=C/C(=C(/c2ccc(O)c(Br)c2)c2ccccc2S(=O)(=O)[O-])C=C1Br.O=C1C=C/C(=C(/c2ccc(O)c(Br)c2)c2ccccc2S(=O)(=O)[O-])C=C1Br.[Pt+4]`, the T/C was 175 % of control (endpoint: median survival time, dose: 3.12 mg/kg/injection, schedule: Q04DX003 (ip), vehicle: saline); 219 % of control (endpoint: median survival time, dose: 6.25 mg/kg/injection, schedule: Q04DX003 (ip), vehicle: saline); 239 % of control (endpoint: median survival time, dose: 12.5 mg/kg/injection, schedule: Q04DX003 (ip), vehicle: saline); 329 % of control (endpoint: median survival time, dose: 25.0 mg/kg/injection, schedule: Q04DX003 (ip), vehicle: saline).

In the case of `O=C(O)COc1ccc(F)cc1Br`, the T/C was 93 % of control under setting [9], 93 % of control under setting [10] and 93 % of control under setting [11].

Regarding `Cc1cc(NCCN(C(C)C)C(C)C)nc(Nc2nc3cc(Cl)c(Cl)cc3[nH]2)n1`, the T/C was 100 % of control (endpoint: mean survival time, dose: 6.25 mg/kg/injection, schedule: Q01DX009 (ip), vehicle: saline with Tween-80); 105 % of control under setting [12]; 92 % of control under setting [13]; 87 % of control under setting [6].

Regarding `O=C1CSC(=S)N1/N=C/c1cc2c(cc1[N+](=O)[O-])OCO2`, the T/C (endpoint: mean survival time, dose: 75.0 mg/kg/injection, schedule: Q01DX001 (ip), vehicle: other) was 102 % of control and the T/C (endpoint: mean survival time, dose: 300.0 mg/kg/injection, schedule: Q01DX001 (ip), vehicle: other) was 90 % of control.

Consider `O=C(O)C(O)(c1ccccc1)c1ccsc1` (centres undefined), for which the T/C is 101 % of control under setting [6], 98 % of control under setting [7] and 103 % of control under setting [8].

On to `CCCC[N+](CCCC)(CCCC)CCCC.[Cl-].[Cl-].[Cl-].[Cl-].[Cl-].[Cl-].[Cl-].[Cl-].[Re].[Re]`, for which the T/C under setting [9] was 112 % of control, the T/C under setting [10] was 112 % of control and the T/C under setting [11] is 116 % of control.

With `O=NN(CCCl)C(=S)Nc1ccccc1`, the T/C reads like this: (endpoint: mean survival time, dose: 100.0 mg/kg/injection, schedule: Q01DX001 (ip), vehicle: other) 98 % of control; (endpoint: mean survival time, dose: 200.0 mg/kg/injection, schedule: Q01DX001 (ip), vehicle: other) 98 % of control.

For the compound `Nc1ccc2cc3ccccc3cc2c1`, the T/C reads like this: under setting [12], 104 % of control; under setting [13], 104 % of control; (endpoint: mean survival time, dose: 50.0 mg/kg/injection, schedule: Q01DX009 (ip), vehicle: saline with Tween-80) 95 % of control; under setting [6], 109 % of control; under setting [7], 111 % of control; under setting [8], 94 % of control.

As to `CC(C)(C)C1CCC(=O)C1` (centres undefined), the T/C is 87 % of control under setting [12] and 95 % of control under setting [13].

On to `c1ccc(CCCCc2ccc3ccccc3n2)cc1`, for which the T/C by setting is: (endpoint: mean survival time, dose: 100.0 mg/kg/injection, schedule: Q01DX009 (ip), vehicle: saline with Tween-80) 93 % of control; under setting [6], 106 % of control; (endpoint: mean survival time, dose: 200.0 mg/kg/injection, schedule: Q01DX009 (ip), vehicle: saline with Tween-80) 102 % of control; under setting [7], 100 % of control; (endpoint: mean survival time, dose: 400.0 mg/kg/injection, schedule: Q01DX009 (ip), vehicle: saline with Tween-80) 98 % of control; under setting [8], 100 % of control.

For `BrC/C(=N\N1CCCCCC1)c1ccc(Br)cc1`, the T/C (endpoint: mean survival time, dose: 100.0 mg/kg/injection, schedule: Q01DX001 (ip), vehicle: saline) was 94 % of control; the T/C (endpoint: mean survival time, dose: 200.0 mg/kg/injection, schedule: Q01DX001 (ip), vehicle: saline) was 92 % of control; the T/C (endpoint: mean survival time, dose: 400.0 mg/kg/injection, schedule: Q01DX001 (ip), vehicle: saline) was 92 % of control.

Consider `Cc1ccc(Cl)cc1NC(=S)NC(=O)COc1ccccc1`, for which the T/C under setting [12] was 98 % of control and 106 % of control; the T/C under setting [13] was 98 % of control; the T/C under setting [1] was 100 % of control; the T/C (endpoint: mean survival time, dose: 50.0 mg/kg/injection, schedule: Q01DX001 (ip), vehicle: saline with Tween-80) was 97 % of control; the T/C under setting [2] was 96 % of control; the T/C under setting [3] was 89 % of control. For the same compound, the T/C by setting is: under setting [9], 87 % of control; under setting [6], 90 % of control; under setting [4], 88 % of control; under setting [10], 98 % of control.

Consider `CCOc1ccccc1Nc1cc(=O)[nH]c(=O)[nH]1`, for which the T/C is 100 % of control under setting [3], 97 % of control under setting [4] and 92 % of control under setting [5].

With `COc1cc(Cc2nccc3ccccc23)cc([N+](=O)[O-])c1OC`, the T/C is 97 % of control under setting [3], 92 % of control under setting [4] and 89 % of control under setting [5].

For `CCCCn1ccnc1C`, the T/C reads like this: (endpoint: mean survival time, dose: 6.25 mg/kg/injection, schedule: Q01DX009 (ip), vehicle: saline) 102 % of control; (endpoint: mean survival time, dose: 6.25 mg/kg/injection, schedule: Q04DX003 (ip), vehicle: saline) 94 % of control; (endpoint: mean survival time, dose: 12.5 mg/kg/injection, schedule: Q01DX009 (ip), vehicle: saline) 103 % of control; (endpoint: mean survival time, dose: 12.5 mg/kg/injection, schedule: Q04DX003 (ip), vehicle: saline) 94 % of control; (endpoint: mean survival time, dose: 25.0 mg/kg/injection, schedule: Q01DX009 (ip), vehicle: saline) 103 % of control; (endpoint: mean survival time, dose: 25.0 mg/kg/injection, schedule: Q04DX003 (ip), vehicle: saline) 94 % of control.
